These results are taken from patent publication US20170349532A1, “CATIONIC LIPID” (Kyowa Hakko Kirin Co., Ltd., priority 2011, published 2017).

The structures appear in SMILES notation.

The first series can be described thus: Average particle diameter of preparation (Zetasizer Nano ZS). The series is classed as physicochemical. The conditions noted are these: Comparative Examples 1 to 8, prepared as Example 118 with apo-b siRNA. The text has this:
Preparations were produced using the compounds obtained in Examples 1 to 117, as follows.
APO-B siRNA was used as the nucleic acid. APO-B siRNA suppresses expression of an apolipoprotein-B (hereinafter, “apo-b”) gene and has a sense strand with the base sequence 5′-GmUCAmUCACACmUGAAmUACCAAmU-3′ (the sugars attached to the bases appended with m are 2′-O-methyl-substituted riboses), and an antisense strand with the base sequence 5′-[…]-3′ (the 5′-end is phosphorylated). The sense strand and the antisense strand were obtained from Nippon EGT, GeneDesign, Inc., Invitrogen or Hokkaido System Science Co., Ltd., and annealed to prepare the nucleic acid (hereinafter, “apo-b siRNA”).
A solution comprising the constituent components was prepared by dissolving each of the weighed samples in 90 vol % ethanol in 8.947/1.059/5.708/13.697 mmol/L [compounds 1 to 117 obtained in Examples 1 to 117/sodium 1,2-dimyristoyl-sn-glycero-3-phosphoethanolamine-N-(methoxy(polyethylene glycol)-2000) (PEG-DMPE Na,N-(carbonylmethoxypolyethylene glycol 2000)-1,2-dimyristoyl-sn-glycero-3-phosphoethanolamine sodium salt, NOF Corporation)/distearoylphosphatidyl choline (DSPC, 1,2-distearoyl-sn-glycero-3-phosphocholine, NOF Corporation)/cholesterol (Avanti Polar Lipids)]. Separately, apo-b siRNA/distilled water (24 mg/mL) was diluted with a Tris-EDTA buffer (200 mM Tris-HCl, 20 mM EDTA, Invitrogen) and a 20 mM citric acid buffer (pH 5.0) to prepare a 1.5 mg/mL apo-b siRNA aqueous solution (2 mM Tris-EDTA/20 mM citric acid buffer, pH 5.0).
The resulting lipid solution was heated to 37° C., and a 100-μL portion was transferred to a preparation container. The apo-b siRNA aqueous solution (100 μL) was then added thereto while being stirred. Then, a 20 mM citric acid buffer (containing 300 mM NaCl, pH 6.0; 200 μL) was added to the lipid nucleic acid mixed suspension (200 μL) while being stirred. The siRNA concentration was brought to 10 μM by dropping a Dulbecco phosphate buffer (DPBS, Invitrogen; 662 μL), and preparations (compositions comprising compounds 1 to 117 and the nucleic acid) were obtained.
The average particle diameter of the complex between the cationic lipis and the nucleic acid in each preparation was measured with a particle diameter measurement device (Malvern; Zetasizer Nano ZS).
Take `CCCCCCCC/C=C\CCCCCCCCO[C@@H]1CN(Cc2ccccc2)C[C@H]1OCCCCCCCC/C=C\CCCCCCCC` [Compound VI-4, (3R,4R)-1-Benzyl-3,4-bis((Z)-octadec-9-enyloxy)pyrrolidine, reference compound]: the “average particle diameter of the complex between the cationic lipis and the nucleic acid in the preparation” value (“average particle diameter” below) turned out to be 157.8 nm.

Regarding `CCCCC/C=C\C/C=C\CCCCCCCC(=O)OCCN(C)CCOC(=O)CCCCCCC/C=C\C/C=C\CCCCC` [Compound A-5, N-Methyl-N,N-bis(2-((9Z,12Z)-1-oxooctadec-9,12-dienyloxy)ethyl)amine, reference compound], the “average particle diameter” value worked out at 136.4 nm.

Turning to `CCCCC/C=C\C/C=C\CCCCCCCC(=O)O[C@@H]1CN(C)C[C@H]1OC(=O)CCCCCCC/C=C\C/C=C\CCCCC` [Compound A-3, (3R,4R)-1-Methylpyrrolidine-3,4-diyl di((9Z,12Z)-octadec-9,12-dienoate), reference compound], the “average particle diameter” value amounted to 141.0 nm.

The same series, now with this note: average particle diameter of cationic lipid/nucleic acid complex; Example 118 preparation: compound/PEG-DMPE Na/DSPC/cholesterol with apo-b siRNA.
Take `CCCCCCCC/C=C\CCCCCCCCOCCNCCOCCCCCCCC/C=C\CCCCCCCC` [Compound 67, bis(2-((Z)-Octadec-9-enyloxy)ethyl)amine]: the “Particle diameter of Preparetion” value was determined as 127.6 nm.

As for `CCCCC/C=C\C/C=C\CCCCCCCCO[C@@H]1CN(CCC(N)=O)C[C@H]1OCCCCCCCC/C=C\C/C=C\CCCCC` [Compound 57, 3-((3R,4R)-3,4-bis((9Z,12Z)-Octadec-9,12-dienyloxy)pyrrolidin-1-yl)propanamide], the “Particle diameter of Preparetion” value stood at 159.2 nm.

In the case of `CCCCCCCCCCCCCCO[C@@H]1CNC[C@H]1OCCCCCCCCCCCCCC` [Compound 5, (3R,4R)-3,4-bis(Tetradecyloxy)pyrrolidine], the “Particle diameter of Preparetion” value is recorded as 154.2 nm.

`CCCCCCCCCCCCCCCCCCO[C@@H]1CN(C)C[C@H]1OCCCCCCCCCCCCCCCCCC` [Compound 46, (3R,4R)-1-Methyl-3,4-bis(octadecyloxy)pyrrolidine]: the “Particle diameter of Preparetion” value is 192.0 nm.

As for `CCCCC/C=C\C/C=C\CCCCCCCC(=O)OCCN(CCOC(=O)CCCCCCC/C=C\C/C=C\CCCCC)C(=O)CN` [Compound 96, 2-Amino-N,N-bis(2-((9Z,12Z)-octadec-9,12-dienoyloxy)ethyl)acetamide], the “Particle diameter of Preparetion” value is 133.2 nm.

As to `CCCCCCCC/C=C\CCCCCCCCOCCN(CCOCCCCCCCC/C=C\CCCCCCCC)C(=O)CCCCCN` [Compound 88, 6-Amino-N,N-bis(2-((Z)-octadec-9-enyloxy)ethyl)], the “Particle diameter of Preparetion” value stood at 131.9 nm.

On to `CCCCC/C=C\C/C=C\CCCCCCCCO[C@@H]1CN(C2CCN(C)CC2)C[C@H]1OCCCCCCCC/C=C\C/C=C\CCCCC` [Compound 60, 4-((3R,4R)-3,4-bis((9Z,12Z)-Octadec-9,12-dienyloxy)pyrrolidin-1-yl)-1-methylpiperidine], for which the “Particle diameter of Preparetion” value is 125.3 nm.

Take `CCCCC/C=C\C/C=C\CCCCCCCCCCOCCN(C)CCOCCCCCCCCCC/C=C\C/C=C\CCCCC` [Compound 79, N,N-bis(2-((11Z,14Z)-Icos-11,14-dienyloxy)ethyl)-N-methylamine]: the “Particle diameter of Preparetion” value came to 116.5 nm.

Regarding `CCCCC/C=C\C/C=C\CCCCCCCC(=O)OC[C@@H]1CNC[C@H]1COC(=O)CCCCCCC/C=C\C/C=C\CCCCC` (relative stereo) [Compound 105, trans-3,4-bis(((9Z,12Z)-Octadec-9,12-dienoyloxy)methyl)pyrrolidine], the “Particle diameter of Preparetion” value is recorded as 125.6 nm.

As for `CCCCCCCC/C=C\CCCCCCCC(=O)O[C@@H]1CNC[C@H]1OC(=O)CCCCCCC/C=C\CCCCCCCC` [Compound 9, (3R,4R)-Pyrrolidine-3,4-diyl di((Z)-octadec-9-enoate)], the “Particle diameter of Preparetion” value was 141.9 nm.

Take `CCCCC/C=C\C/C=C\CCCCCCCC(=O)OC[C@@H]1C[N+](C)(C)C[C@H]1COC(=O)CCCCCCC/C=C\C/C=C\CCCCC.[Cl-]` (relative stereo) [Compound 114, trans-1,1-Dimethyl-3,4-bis(((9Z,12Z)-octadec-9,12-dienoyloxy)methyl)pyrrolidinium chloride]: the “Particle diameter of Preparetion” value was determined as 108.2 nm.

Consider `CCCCCC/C=C\CCCCCCCCOCCN(C)CCOCCCCCCCC/C=C\CCCCCC` [Compound 35, N-Methyl-N,N-bis(2-((Z)-hexadec-9-enyloxy)ethyl)amine], for which the “Particle diameter of Preparetion” value is given as 126.5 nm.

With `CCCCC/C=C\C/C=C\CCCCCCCC(=O)O[C@@H]1CN(CC(O)CO)C[C@H]1OC(=O)CCCCCCC/C=C\C/C=C\CCCCC` (stereo partly drawn) [Compound 53, (3R,4R)-1-(2,3-dihydroxypropyl)pyrrolidine-3,4-diyl di((9Z,12Z)-octadec-9,12-enoate)], the “Particle diameter of Preparetion” value came to 152.4 nm.

As for `CCCCC/C=C\C/C=C\CCCCCCCCO[C@@H]1CN(C(=O)[C@@H](N)CCCN)C[C@H]1OCCCCCCCC/C=C\C/C=C\CCCCC` [Compound 63, (3R,4R)-1-((S)-2,5-Diaminopentanoyl)-3,4-bis((9Z,12Z)-octadec-9,12-dienyloxy)pyrrolidine], the “Particle diameter of Preparetion” value amounted to 143.0 nm.

Consider `CCCCC/C=C\C/C=C\CCCCCCCCOC[C@@H]1CNC[C@H]1COCCCCCCCC/C=C\C/C=C\CCCCC` (relative stereo) [Compound 102, trans-3,4-bis(((9Z,12Z)-Octadec-9,12-dienyloxy)methyl)pyrrolidine], for which the “Particle diameter of Preparetion” value was found to be 133.0 nm.

In the case of `CCCCC/C=C\C/C=C\CCCCCCCCO[C@@H]1CN(CCCO)C[C@H]1OCCCCCCCC/C=C\C/C=C\CCCCC` [Compound 56, 3-((3R,4R)-3,4-bis((9Z,12Z)-Octadec-9,12-dienyloxy)pyrrolidin-1-yl)propan-1-ol], the “Particle diameter of Preparetion” value is given as 120.3 nm.

Take `CCCCCCCCCCCCCCCCOCCNCCOCCCCCCCCCCCCCCCC` [Compound 70, bis(2-(Hexadecyloxy)ethyl)amine]: the “Particle diameter of Preparetion” value came to 145.6 nm.

On to `CCCCC/C=C\C/C=C\CCCCCCCCCCO[C@@H]1CN(C)C[C@H]1OCCCCCCCCCC/C=C\C/C=C\CCCCC` [Compound 16, (3R,4R)-3,4-bis((11Z,14Z)-Icos-11,14-dienyloxy)-1-methylpyrrolidine], for which the “Particle diameter of Preparetion” value came out at 143.2 nm.

Regarding `CCCCC/C=C\C/C=C\CCCCCCCCCCOC[C@@H]1CN(C)C[C@H]1COCCCCCCCCCC/C=C\C/C=C\CCCCC` (relative stereo) [Compound 108, trans-3,4-bis(((11Z,14Z)-Icos-11,14-dienyloxy)methyl)-1-methylpyrrolidine], the “Particle diameter of Preparetion” value came out at 144.9 nm.

Turning to `CCCC/C=C\CCCCCCCCO[C@@H]1CN(C)C[C@H]1OCCCCCCCC/C=C\CCCC` [Compound 47, (3R,4R)-1-Methyl-3,4-bis((Z)-tetradec-9-enyloxy)pyrrolidine], the “Particle diameter of Preparetion” value is 125.8 nm.

With `CCCCCCCC/C=C\CCCCCCCCOCCN(CCOCCCCCCCC/C=C\CCCCCCCC)CCC(=O)N(C)C` [Compound 85, 3-(bis(2-((2)-Octadec-9-enyloxy)ethyl)amino)-N,N-dimethylpropanamide], the “Particle diameter of Preparetion” value is recorded as 120.1 nm.

Take `CCCCCCCCCCCCCCCCO[C@@H]1CN(C)C[C@H]1OCCCCCCCCCCCCCCCC` [Compound 45, (3R,4R)-3,4-bis(Hexadecyloxy)-1-methylpyrrolidine]: the “Particle diameter of Preparetion” value was determined as 136.3 nm.
